The source of these data is patent US20060252807A1, “Novel ortho-terphenyl inhibitors of p38 kinase and methods of treating inflammatory disorders” (Kalypsys, Inc., priority 2005, published 2006).

Bounds are passed on as bounds.

The target in the first assay is T1, active p38 alpha enzyme (Upstate Biotechnology) (Homo sapiens, UniProt Q16539).
T1 construct: purchased Upstate Biotechnology
T1 sequence (Q16539 whole entry): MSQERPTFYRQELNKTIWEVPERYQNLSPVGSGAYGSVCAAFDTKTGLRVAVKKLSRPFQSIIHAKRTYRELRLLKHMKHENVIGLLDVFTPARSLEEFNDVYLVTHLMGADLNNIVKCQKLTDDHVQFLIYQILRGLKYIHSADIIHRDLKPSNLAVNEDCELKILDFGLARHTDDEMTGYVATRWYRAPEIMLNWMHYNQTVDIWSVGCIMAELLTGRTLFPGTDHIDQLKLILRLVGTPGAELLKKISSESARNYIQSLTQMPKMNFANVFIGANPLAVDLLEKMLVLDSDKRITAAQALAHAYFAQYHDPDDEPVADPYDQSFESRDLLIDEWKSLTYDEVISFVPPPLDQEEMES
Briefly: p38α biochemical assay (ATP turnover, luminescent detection, Cambrex PKlight). To be noted: p38α biochemical assay, Table 1 Biological Activity. In short, it runs like this: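 Luminescent PKlight readout of total ATP consumption follows a 2 h, 30C kinase reaction. Enzyme and MapkapK2 substrate run with 1.4 uM ATP (final) in buffer containing Mg2+, Ca2+, chelators, glycerol, reducing agent and BSA; test compounds added by pintool from DMSO.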
As for `CC(C)NC(=O)c1csc(-c2oc(CNC(=O)C3CN(C(=O)OC(C)(C)C)CCN3)nc2-c2ccc(F)cc2)n1` (stereo not drawn) [Example 314], the half-inhibitory concentration (IC50) was ≤ 1000 nM.

On to `COc1ccc(C(=O)NCc2nc(-c3ccc(F)cc3)c(-c3nc(C(=O)NC(C)C)cs3)o2)cc1O` [Example 189], for which the IC50 was > 1000 nM.

`Cc1onc(-c2cccc(C(F)(F)F)c2)c1-c1ccn(C(=O)NC(C)C)n1` [Example 19, 3-|5-Methyl-3-(3-trifluoromethyl-phenyl)-isoxazol-4-yl|-pyrazole-1-carboxylic acid isopropylamide]: the half-inhibitory concentration (IC50) was > 1000 nM.

For the molecule `CC(C)NC(=O)c1csc(-c2c(-c3ccc(F)cc3)noc2CNC(=O)c2cc(Cl)ccc2[N+](=O)[O-])n1` [Example 750], the IC50 is > 1000 nM.

In the case of `CC(C)NC(=O)c1csc(-c2c(-c3ccc(F)cc3)noc2CNC(=O)c2ccccn2)n1` [Example 589], the concentration for half-maximal inhibition (IC50) was > 1000 nM.

With `Cc1ccccc1CCC(=O)N1CCN(Cc2nc(-c3ccc(F)cc3)c(-c3nc(C(=O)NC(C)C)cs3)o2)CC1` [Example 409], the IC50 is ≤ 1000 nM.

With `CC(C)NC(=O)c1csc(-c2oc(CN3CCN(C(=O)C4CCc5ccccc5C4)CC3)nc2-c2ccc(F)cc2)n1` (stereo not drawn) [Example 441], the half-inhibitory concentration (IC50) was ≤ 1000 nM.

`CC(C)NC(=O)c1csc(-c2oc(CN3CCN(C(=O)/C=C/c4ccccc4C(F)(F)F)CC3)nc2-c2ccc(F)cc2)n1` [Example 533]: the IC50 was > 1000 nM.

On to `COc1ccc(C(=O)N2CCN(Cc3nc(-c4ccc(F)cc4)c(-c4nc(C(=O)NC(C)C)cs4)o3)CC2)c(OC)c1OC` [Example 523], for which the IC50 is ≤ 1000 nM.

With `CC(C)NC(=O)c1csc(-c2oc(CNC(=O)c3c4ccccc4cc4ccccc34)nc2-c2ccc(F)cc2)n1` [Example 303], the IC50 was ≤ 1000 nM.

Consider `COc1cc(C(=O)N2CCN(Cc3nc(-c4ccc(F)cc4)c(-c4nc(C(=O)NC(C)C)cs4)o3)CC2)cc(OC)c1O` [Example 503], for which the 50% inhibitory concentration (IC50) was ≤ 1000 nM.

Regarding `COc1ccc(C(=O)NCc2onc(-c3ccc(F)cc3)c2-c2nc(C(=O)NC(C)C)cs2)c(OC)c1` [Example 700], the concentration for half-maximal inhibition (IC50) was > 1000 nM.

With `CC(C)NC(=O)c1csc(-c2oc(CNC(=O)OC(C)(C)C)nc2-c2ccc(F)cc2)n1` [Example 43, |4-(4-Fluoro-phenyl)-5-(4-isopropylcarbamoyl-thiazol-2-yl)-oxazol-2-ylmethyl|-carbamic acid tert-butyl ester], the IC50 is > 1000 nM.

As to `CCOc1ccccc1C(=O)NCc1nc(-c2ccc(F)cc2)c(-c2nc(C(=O)NC(C)C)cs2)o1` [Example 179], the IC50 was > 1000 nM.

Regarding `CC(C)NC(=O)c1csc(-c2oc(CNC(=O)c3ccc4c(c3)OCO4)nc2-c2ccc(F)cc2)n1` [Example 177], the IC50 is > 1000 nM.

Take `COc1ccc(C(=O)NCc2onc(-c3ccc(F)cc3)c2-c2nc(C(=O)NC(C)C)cs2)c(O)c1` [Example 663]: the IC50 is > 1000 nM.

In the case of `C#CCNC(=O)c1csc(-c2c(-c3ccc(F)cc3)ncn2C2CCNCC2)n1` [Example 92, 2-|5-(4-Fluoro-phenyl)-3-piperidin-4-yl-3H-imidazol-4-yl|-thiazole-4-carboxylic acid prop-2-ynylamide], the concentration for half-maximal inhibition (IC50) is ≤ 1000 nM.

On to `Cc1ccc(C(=O)NCc2onc(-c3ccc(F)cc3)c2-c2nc(C(=O)NC(C)C)cs2)cc1` [Example 598], for which the IC50 is > 1000 nM.

On to `Cc1ccc(C(=O)NCc2onc(-c3ccc(F)cc3)c2-c2nc(C(=O)NC(C)C)cs2)cc1C` [Example 614], for which the 50% inhibitory concentration (IC50) was > 1000 nM.

`CC(C)NC(=O)c1csc(-c2c(-c3ccc(F)cc3)noc2CNC(=O)Cc2ccc(Br)cc2)n1` [Example 769]: the IC50 is > 1000 nM.

Turning to `CC(C)NC(=O)c1csc(-c2c(-c3ccc(F)cc3)noc2CNC(=O)c2ccc(F)c(F)c2)n1` [Example 636], the IC50 was > 1000 nM.

The assay is the same for the next values; noted with them: p38α kinase; Table 1 Biological Activity.
On to `Cc1ccnc(NC(=O)c2csc(-c3sc(C)nc3-c3ccc(F)cc3)n2)c1` [Example 1961], for which the IC50 was > 1000 nM.

As to `Cc1nc(-c2ccc(F)cc2)c(-c2nc(C(=O)Nc3ccc(C(F)(F)F)cc3)cs2)s1` [Example 2005], the half-inhibitory concentration (IC50) was > 1000 nM.

Take `Cc1nc(-c2ccc(F)cc2)c(-c2nc(C(=O)N3CCN(Cc4ccc5c(c4)OCO5)CC3)cs2)s1` [Example 1945]: the 50% inhibitory concentration (IC50) is > 1000 nM.

In the case of `Cc1nc(-c2ccc(F)cc2)c(-c2nc(C(=O)N3Cc4ccccc4C3)cs2)s1` [Example 1866], the half-maximal inhibitory concentration (IC50) is > 1000 nM.

As to `O=C(NCc1ccc(F)cc1)c1csc(-c2c(-c3ccc(F)cc3)n[nH]c2C2CCNCC2)n1` [Example 2081], the half-inhibitory concentration (IC50) is > 1000 nM.

Take `CCCNCc1nc(-c2ccc(F)cc2)c(-c2nc(C(=O)NC(C)C)cs2)o1` [Example 1055]: the IC50 is > 1000 nM.

Turning to `CC(C)NC(=O)c1csc(-c2c(-c3ccc(F)cc3)n[nH]c2C2CCN(C(=O)CC#N)CC2)n1` [Example 814], the IC50 was ≤ 1000 nM.

Regarding `Cc1nc(-c2ccc(F)cc2)c(-c2nc(C(=O)NCc3ccc(F)c(Cl)c3)cs2)s1` [Example 1807], the 50% inhibitory concentration (IC50) is ≤ 1000 nM.

In the case of `O=C(NCc1ccc(Cl)cc1Cl)c1csc(-c2c(-c3ccc(F)cc3)n[nH]c2C2CCNCC2)n1` [Example 2146], the half-inhibitory concentration (IC50) was > 1000 nM.

On to `CCN(Cc1ccccc1)C(=O)c1csc(-c2sc(C)nc2-c2ccc(F)cc2)n1` [Example 1875], for which the IC50 is > 1000 nM.

On to `Cc1nc(-c2ccc(F)cc2)c(-c2nc(C(=O)NCCc3ccc4c(c3)OCO4)cs2)s1` [Example 1830], for which the half-inhibitory concentration (IC50) is ≤ 1000 nM.

Consider `Cc1nc(-c2ccc(F)cc2)c(-c2nc(C(=O)N(C)C)cs2)s1` [Example 1834], for which the IC50 was > 1000 nM.

As for `O=C(NCC1(O)CCCCC1)c1csc(-c2c(-c3ccc(F)cc3)n[nH]c2C2CCNCC2)n1` [Example 2137], the IC50 is > 1000 nM.

On to `Cc1nc(-c2ccc(F)cc2)c(-c2nc(C(=O)NCC3CCCO3)cs2)s1` (stereo not drawn) [Example 1733], for which the half-inhibitory concentration (IC50) was ≤ 1000 nM.

For the molecule `CC(C)NC(=O)c1csc(-c2oc(CNc3ccc(C(F)(F)F)cc3)nc2-c2ccc(F)cc2)n1` [Example 1355], the IC50 was > 1000 nM.

With `COc1ccc(N2CCN(Cc3nc(-c4ccc(F)cc4)c(-c4nc(C(=O)NC(C)C)cs4)o3)CC2)cc1` [Example 1269], the concentration for half-maximal inhibition (IC50) is > 1000 nM.

Turning to `CC(C)NC(=O)c1csc(-c2c(-c3ccc(F)cc3)noc2CN2CCN(c3ccccc3C#N)CC2)n1` [Example 1586], the IC50 is > 1000 nM.

In the case of `CC(=O)N1CCC(c2onc(-c3ccc(F)cc3)c2-c2nc(C(=O)NC(C)C)cs2)CC1` [Example 2184, 2-|5-(1-Acetyl-piperidin-4-yl)-3-(4-fluoro-phenyl)-isoxazol-4-yl|-thiazole-4-carboxylic acid isopropylamide], the IC50 is ≤ 1000 nM.

For `CC(C)NCc1onc(-c2ccc(F)cc2)c1-c1nc(C(=O)NC(C)C)cs1` [Example 1387], the IC50 is > 1000 nM.

For `Cc1ccccc1CNC(=O)c1csc(-c2c(-c3ccc(F)cc3)n[nH]c2C2CCNCC2)n1` [Example 2077], the half-maximal inhibitory concentration (IC50) is > 1000 nM.

`Cc1nc(-c2ccc(F)cc2)c(-c2nc(C(=O)NCCc3ccc(S(N)(=O)=O)cc3)cs2)s1` [Example 1828]: the IC50 is ≤ 1000 nM.

With `CC(C)NC(=O)c1csc(-c2c(-c3ccc(F)cc3)noc2CNc2ccccc2C(C)C)n1` [Example 1657], the half-maximal inhibitory concentration (IC50) is > 1000 nM.

In the case of `CC(C)NC(=O)c1csc(-c2oc(CNc3ccccc3C(C)C)nc2-c2ccc(F)cc2)n1` [Example 1334], the half-inhibitory concentration (IC50) is > 1000 nM.

Take `C#CCNCc1nc(-c2ccc(F)cc2)c(-c2nc(C(=O)NC(C)C)cs2)o1` [Example 1051]: the IC50 was > 1000 nM.
